Columns and labels:
Integrin alpha-V/beta-5 = Integrin alpha-V/beta-5 (Homo sapiens, UniProt P06756+P18084); test: Binding affinity to alphaVbeta5 receptor (unknown origin); format: protein-complex assay
Integrin alpha-V/beta-3 = Integrin alpha-V/beta-3 (Homo sapiens, UniProt P05106+P06756); test: Displacement of [125I]echistatin from purified human alphaVbeta3 receptor after 3 hrs by gamma counting; format: protein-complex assay
Chain of Integrin alpha-V/beta-3 (P05106 27-788 limits assumed): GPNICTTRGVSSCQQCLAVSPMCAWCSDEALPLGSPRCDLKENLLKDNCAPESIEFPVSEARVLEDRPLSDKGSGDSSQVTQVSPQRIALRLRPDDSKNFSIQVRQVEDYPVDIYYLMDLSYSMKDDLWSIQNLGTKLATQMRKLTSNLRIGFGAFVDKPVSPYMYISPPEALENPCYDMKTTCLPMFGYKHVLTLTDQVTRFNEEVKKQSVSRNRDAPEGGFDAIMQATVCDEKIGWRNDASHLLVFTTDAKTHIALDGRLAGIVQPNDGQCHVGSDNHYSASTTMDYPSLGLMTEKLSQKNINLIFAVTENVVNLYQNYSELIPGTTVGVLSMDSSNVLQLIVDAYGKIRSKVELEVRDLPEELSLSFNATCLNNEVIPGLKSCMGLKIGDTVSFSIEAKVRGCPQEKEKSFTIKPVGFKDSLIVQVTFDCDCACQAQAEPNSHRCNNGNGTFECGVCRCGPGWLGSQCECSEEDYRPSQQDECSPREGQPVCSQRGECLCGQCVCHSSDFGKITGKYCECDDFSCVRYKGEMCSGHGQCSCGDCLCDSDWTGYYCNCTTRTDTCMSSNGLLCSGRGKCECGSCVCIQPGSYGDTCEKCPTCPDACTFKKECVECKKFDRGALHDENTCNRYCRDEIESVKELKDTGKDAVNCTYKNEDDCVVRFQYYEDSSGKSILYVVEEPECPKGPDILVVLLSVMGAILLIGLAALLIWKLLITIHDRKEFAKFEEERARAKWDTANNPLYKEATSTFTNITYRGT
Chain of Integrin alpha-V/beta-3 (P06756 31-889 limits assumed): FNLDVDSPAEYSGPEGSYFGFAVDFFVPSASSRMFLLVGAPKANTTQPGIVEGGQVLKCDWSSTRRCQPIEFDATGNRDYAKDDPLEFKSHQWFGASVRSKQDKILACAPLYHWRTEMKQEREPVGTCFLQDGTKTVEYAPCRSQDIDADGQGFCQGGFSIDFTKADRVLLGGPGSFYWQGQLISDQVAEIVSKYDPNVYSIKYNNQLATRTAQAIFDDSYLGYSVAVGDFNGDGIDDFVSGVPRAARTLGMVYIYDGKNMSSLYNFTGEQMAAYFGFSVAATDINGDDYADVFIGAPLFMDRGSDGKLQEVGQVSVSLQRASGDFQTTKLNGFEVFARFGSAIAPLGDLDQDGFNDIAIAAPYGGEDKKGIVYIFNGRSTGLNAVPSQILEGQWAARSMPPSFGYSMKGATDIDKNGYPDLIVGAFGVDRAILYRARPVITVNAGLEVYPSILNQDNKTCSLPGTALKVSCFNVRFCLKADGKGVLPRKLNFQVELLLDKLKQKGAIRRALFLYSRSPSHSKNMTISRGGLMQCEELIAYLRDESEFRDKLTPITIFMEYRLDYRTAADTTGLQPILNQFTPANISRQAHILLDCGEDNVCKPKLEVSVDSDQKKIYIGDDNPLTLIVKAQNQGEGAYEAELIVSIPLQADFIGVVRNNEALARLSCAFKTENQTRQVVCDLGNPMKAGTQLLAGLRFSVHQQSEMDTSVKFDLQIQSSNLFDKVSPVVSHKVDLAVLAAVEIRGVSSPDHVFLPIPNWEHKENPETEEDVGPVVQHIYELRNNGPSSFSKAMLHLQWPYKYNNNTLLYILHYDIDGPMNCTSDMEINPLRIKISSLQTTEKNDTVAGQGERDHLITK
Chain of Integrin alpha-V/beta-3 (P06756 891-1048 limits assumed): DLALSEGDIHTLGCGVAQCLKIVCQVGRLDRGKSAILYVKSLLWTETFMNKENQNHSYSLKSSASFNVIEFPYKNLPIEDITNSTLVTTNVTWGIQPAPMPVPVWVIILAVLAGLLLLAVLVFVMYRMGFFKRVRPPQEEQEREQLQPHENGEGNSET

Chain of Integrin alpha-V/beta-5 (P06756 31-889 limits assumed): as the sequence (P06756 31-889 limits assumed) above
Chain of Integrin alpha-V/beta-5 (P06756 891-1048 limits assumed): as the sequence (P06756 891-1048 limits assumed) above
Chain of Integrin alpha-V/beta-5 (P18084 24-799 limits assumed): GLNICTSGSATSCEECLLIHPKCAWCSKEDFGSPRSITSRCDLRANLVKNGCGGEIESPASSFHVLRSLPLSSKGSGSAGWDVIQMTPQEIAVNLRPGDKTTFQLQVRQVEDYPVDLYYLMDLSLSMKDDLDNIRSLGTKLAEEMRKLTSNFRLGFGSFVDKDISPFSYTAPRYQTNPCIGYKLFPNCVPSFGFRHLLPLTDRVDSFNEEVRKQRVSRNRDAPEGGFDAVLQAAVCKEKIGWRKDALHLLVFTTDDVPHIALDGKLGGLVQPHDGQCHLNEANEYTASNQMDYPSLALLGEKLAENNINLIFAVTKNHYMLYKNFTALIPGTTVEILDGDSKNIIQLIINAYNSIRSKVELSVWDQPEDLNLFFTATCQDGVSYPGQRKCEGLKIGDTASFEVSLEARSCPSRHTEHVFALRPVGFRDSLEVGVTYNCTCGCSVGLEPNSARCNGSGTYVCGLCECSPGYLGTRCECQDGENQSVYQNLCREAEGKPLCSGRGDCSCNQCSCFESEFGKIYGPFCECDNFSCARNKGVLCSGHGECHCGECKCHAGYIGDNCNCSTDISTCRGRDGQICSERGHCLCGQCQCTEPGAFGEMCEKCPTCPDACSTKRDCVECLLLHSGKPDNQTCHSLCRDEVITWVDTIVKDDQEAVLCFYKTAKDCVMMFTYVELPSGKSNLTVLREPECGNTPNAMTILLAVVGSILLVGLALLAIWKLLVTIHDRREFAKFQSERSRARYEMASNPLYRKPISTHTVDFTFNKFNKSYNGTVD

IC50 (Integrin alpha-V/beta-5) [µM] | IC50 (Integrin alpha-V/beta-3) [µM] | Compound
30 |  | N=C(N)NCCC[C@@H]1NC(=O)[C@H](CCCCN)NC(=O)[C@@H](Cc2ccccc2)NC(=O)[C@H](CC(=O)O)NC(=O)CNC1=O
 | 50 | N=C(N)NCCC[C@@H]1CCN([C@@H](CCCCN)C(=O)NCCC(=O)O)C1=O
 | 100 | N=C(N)NCCC[C@@H]1CCN([C@@H](CCCCNC(=O)OCc2ccccc2)C(=O)NCCC(=O)O)C1=O
 | > 100 | N=C(N)NCCNC(=O)[C@H](CCCCNC(=O)OCc1ccccc1)N1CC[C@H](CCC(=O)O)C1=O
